Here are results for ten compounds from patent publication US11083196B2, “Microbiocidal oxadiazole derivatives” (SYNGENTA PARTICIPATIONS AG, priority 2016, dated 2021).

By melting point is commonly meant the temperature, or range, at which the solid turns liquid. The pest or weed control is how far the test organism was held down. The low end stands for weak suppression, the high end for strong suppression. In general, inhibition of growth refers to the change of the read-out against control, counted positive when it falls. Higher therefore signals strong suppression.

The subject of data set [1] is Puccinia recondita f. sp. tritici. Put plainly: Fungicidal activity against Puccinia recondita f. sp. tritici / wheat / leaf disc preventative (brown rust). It is filed as in vivo. Particulars: foliar, 168 h, wheat leaf segments cv. Kanzler, inoculated 1 day after application, assessed 7-9 days after application, compared to untreated control. How it is done: Leaf disks or leaf segments of various plant species are cut from plants grown in a greenhouse. The cut leaf disks or segments are placed in multiwell plates (24-well format) onto water agar. The leaf disks are sprayed with a test solution before (preventative) or after (curative) inoculation. Compounds to be tested are prepared as DMSO solutions (max. 10 mg/ml) which are diluted to the appropriate concentration with 0.025% Tween20 just before spraying. The inoculated leaf disks or segments are incubated under defined conditions (temperature, relative humidity, light, etc.) according to the respective test system. A single evaluation of disease level is carried out 3 to 14 days after inoculation, depending on the pathosystem. Percent disease control relative to the untreated check leaf disks or segments is then calculated. Wheat leaf segments cv. Kanzler are placed on agar in multiwell plates (24-well format) and sprayed with the formulated test compound diluted in water. The leaf disks are inoculated with a spore suspension of the fungus 1 day after application. The inoculated leaf segments are incubated at 19° C. and 75% rh under a light regime of 12 h light/12 h darkness in a climate cabinet and the activity of a compound is assessed as percent disease control compared to untreated when an appropriate level of disease damage appears in untreated check leaf segments (7-9 days after application).

Data set [2] has the same test system. The data set can be described thus: Fungicidal activity against Puccinia recondita f. sp. tritici / wheat / leaf disc curative (brown rust). It is filed as in vivo. Particulars: foliar, 144 h, wheat leaf segments cv. Kanzler, applied 1 day after inoculation, assessed 6-8 days after application, compared to untreated control. As to the method:
Leaf disks or leaf segments of various plant species are cut from plants grown in a greenhouse. The cut leaf disks or segments are placed in multiwell plates (24-well format) onto water agar. The leaf disks are sprayed with a test solution before (preventative) or after (curative) inoculation. Compounds to be tested are prepared as DMSO solutions (max. 10 mg/ml) which are diluted to the appropriate concentration with 0.025% Tween20 just before spraying. The inoculated leaf disks or segments are incubated under defined conditions (temperature, relative humidity, light, etc.) according to the respective test system. A single evaluation of disease level is carried out 3 to 14 days after inoculation, depending on the pathosystem. Percent disease control relative to the untreated check leaf disks or segments is then calculated. Wheat leaf segments cv. Kanzler are placed on agar in multiwell plates (24-well format). The leaf segments are inoculated with a spore suspension of the fungus. Plates are stored in darkness at 19° C. and 75% rh. The formulated test compound diluted in water is applied 1 day after inoculation. The leaf segments are incubated at 19° C. and 75% rh under a light regime of 12 h light/12 h darkness in a climate cabinet and the activity of a compound is assessed as percent disease control compared to untreated when an appropriate level of disease damage appears in untreated check leaf segments (6-8 days after application).

Data set [3] relates to Glomerella lagenarium (Colletotrichum lagenarium). The data set can be described thus: Fungicidal activity against Glomerella lagenarium (Colletotrichum lagenarium), liquid culture / cucumber / preventative (anthracnose). The following applies: Colletotrichum orbiculare, liquid culture (PDB), growth inhibition measured photometrically 3-4 days after application, compared to untreated control. It is filed as cell-based. As to the method:
Mycelia fragments or conidia suspensions of a fungus, prepared either freshly from liquid cultures of the fungus or from cryogenic storage, are directly mixed into nutrient broth. DMSO solutions of the test compound (max. 10 mg/ml) is diluted with 0.025% Tween20 by a factor of 50 and 10 μl of this solution is pipetted into a microtiter plate (96-well format). The nutrient broth containing the fungal spores/mycelia fragments is then added to give an end concentration of the tested compound. The test plates are incubated in the dark at 24° C. and 96% relative humidity. The inhibition of fungal growth is determined photometrically after 2 to 7 days, depending on the pathosystem, and percent antifungal activity relative to the untreated check is calculated. Conidia of the fungus from cryogenic storage are directly mixed into nutrient broth (PDB potato dextrose broth). After placing a (DMSO) solution of test compound into a microtiter plate (96-well format), the nutrient broth containing the fungal spores is added. The test plates are incubated at 24° C. and the inhibition of growth is measured photometrically 3-4 days after application.

For a further data set, the system named is Phakopsora pachyrhizi. The data set can be described thus: Fungicidal activity against Phakopsora pachyrhizi / soybean / leaf disc preventative (Asian soybean rust). It is filed as in vivo. Particulars: foliar, 288 h, soybean leaf disks, inoculated one day after application, assessed 12-14 days after application, compared to untreated control. How it is done: Leaf disks or leaf segments of various plant species are cut from plants grown in a greenhouse. The cut leaf disks or segments are placed in multiwell plates (24-well format) onto water agar. The leaf disks are sprayed with a test solution before (preventative) or after (curative) inoculation. Compounds to be tested are prepared as DMSO solutions (max. 10 mg/ml) which are diluted to the appropriate concentration with 0.025% Tween20 just before spraying. The inoculated leaf disks or segments are incubated under defined conditions (temperature, relative humidity, light, etc.) according to the respective test system. A single evaluation of disease level is carried out 3 to 14 days after inoculation, depending on the pathosystem. Percent disease control relative to the untreated check leaf disks or segments is then calculated. Soybean leaf disks are placed on water agar in multiwell plates (24-well format) and sprayed with the formulated test compound diluted in water. One day after application leaf discs are inoculated by spraying a spore suspension on the lower leaf surface. After an incubation period in a climate cabinet of 24-36 hours in darkness at 20° C. and 75% rh leaf disc are kept at 20° C. with 12 h light/day and 75% rh. The activity of a compound is assessed as percent disease control compared to untreated when an appropriate level of disease damage appears in untreated check leaf disks (12-14 days after application).

Regarding `Fc1cc(-c2ccc(-c3noc(C(F)(F)F)n3)cc2)ccn1` [Compound D-7, 3-[4-(2-fluoro-4-pyridyl)phenyl]-5-(trifluoromethyl)-1,2,4-oxadiazole], the melting point is 105 to 110 °C. Further, in data set [1], the pest or weed control at 200 ppm was at least 80%. Further, the pest or weed control at 200 ppm in data set [2] was at least 80%. The inhibition of growth at 20 ppm in data set [3] is at least 80%.

With `CCOCc1cc(-c2ccc(-c3noc(C(F)(F)F)n3)cc2)no1` [Compound C-5, 3-[4-[5-(ethoxymethyl)isoxazol-3-yl]phenyl]-5-(trifluoromethyl)-1,2,4-oxadiazole], the pest or weed control at 200 ppm in the data set on Phakopsora pachyrhizi was at least 80%.

On to `Nc1ccc(-c2ccc(-c3noc(C(F)(F)F)n3)cc2)cn1` [Compound D-12, 5-[4-[5-(trifluoromethyl)-1,2,4-oxadiazol-3-yl]phenyl]pyridin-2-amine], for which the melting point lay in the range of 155 to 160 °C. The pest or weed control at 200 ppm in data set [1] was at least 80%. The pest or weed control at 200 ppm with Phakopsora pachyrhizi is at least 80%. For the same compound, the inhibition of growth at 20 ppm in data set [3] is at least 80%.

`FC(F)(F)c1nc(-c2ccc(C3CC(C4CC4)=NO3)cc2)no1` (stereo not drawn) [Compound A-12, 3-[4-(3-cyclopropyl-4,5-dihydroisoxazol-5-yl)phenyl]-5-(trifluoromethyl)-1,2,4-oxadiazole]: the melting point lay in the range of 109 to 112 °C. Moreover, the pest or weed control at 200 ppm in data set [1] was at least 80%. The same compound gave a pest or weed control at 200 ppm with Phakopsora pachyrhizi of at least 80%. Moreover, the inhibition of growth at 20 ppm in data set [3] was at least 80%.

Compound `CS(=O)(=O)N1CCCC1c1ccc(-c2noc(C(F)(F)F)n2)cc1` (stereo not drawn) [Compound A-30, 3-[4-(1-methylsulfonyl-pyrrolidin-2-yl)phenyl]-5-(trifluoromethyl)-1,2,4-oxadiazole] yielded a melting point of 117.7 to 118.6 °C. The compound further gave a pest or weed control at 200 ppm in data set [1] of at least 80%. For the same compound, the pest or weed control at 200 ppm in data set [2] was at least 80%. The compound further returned an inhibition of growth at 20 ppm in data set [3] of at least 80%.

For the compound `CN(C)C(=O)C(=O)NC1CSC(c2ccc(-c3noc(C(F)(F)F)n3)c(F)c2)=N1` (stereo not drawn) [Compound A-24, N-[2-[3-fluoro-4-[5-(trifluoromethyl)-1,2,4-oxadiazol-3-yl]phenyl]-4,5-dihydrothiazol-4-yl]-N′,N′-dimethyl-oxamide], the melting point lay in the range of 120 to 165 °C. The compound also showed a pest or weed control at 200 ppm in data set [1] of at least 80%. This compound yielded a pest or weed control at 200 ppm in data set [2] of at least 80%. This compound also yielded an inhibition of growth at 20 ppm in data set [3] of at least 80%.

As to `Cc1cc(C)n(-c2ccc(-c3noc(C(F)(F)F)n3)cc2)n1` [Compound E-1, 3-[4-(3,5-dimethylpyrazol-1-yl)phenyl]-5-(trifluoromethyl)-1,2,4-oxadiazole], the melting point was 109 to 111 °C. For the same compound, the pest or weed control at 200 ppm in data set [1] was at least 80%. In data set [2], this compound showed a pest or weed control at 200 ppm of at least 80%. In data set [3], this compound came in with an inhibition of growth at 20 ppm of at least 80%.

`CC1(C)COC(c2ccc(-c3noc(C(F)(F)F)n3)cc2)=N1` [Compound A-2, 3-[4-(4,4-dimethyl-5H-oxazol-2-yl)phenyl]-5-(trifluoromethyl)-1,2,4-oxadiazole] registered a melting point of 70 to 75 °C. The pest or weed control at 200 ppm in data set [1] is at least 80%. Further, the pest or weed control at 200 ppm in data set [2] is at least 80%. Moreover, the inhibition of growth at 20 ppm in data set [3] is at least 80%.

`FC(F)(F)c1nc(-c2ccc(-c3nc(CCl)co3)cc2)no1` [Compound C-4, 3-[4-[4-(chloromethyl)oxazol-2-yl]phenyl]-5-(trifluoromethyl)-1,2,4-oxadiazole] came in with a melting point of 106 to 107 °C. The pest or weed control at 200 ppm with Phakopsora pachyrhizi is at least 80%. The compound further yielded an inhibition of growth at 20 ppm in data set [3] of at least 80%.

Regarding `Fc1ccc(-c2ccc(-c3noc(C(F)(F)F)n3)cc2)cn1` [Compound D-6, 3-[4-(6-fluoro-3-pyridyl)phenyl]-5-(trifluoromethyl)-1,2,4-oxadiazole], the melting point was in the range of 75 to 80 °C. In data set [1], this compound had a pest or weed control at 200 ppm of at least 80%. Further, the pest or weed control at 200 ppm in data set [2] was at least 80%. In data set [3], this compound showed an inhibition of growth at 20 ppm of at least 80%.
